Measured values: US20110318768A1, “METHOD FOR DETERMINING SENSITIVITY OF TUMOR CELLS TO TYROSINE KINASE INHIBITOR AND COMPUTER PROGRAM PRODUCT” (SYSMEX CORPORATION, priority 2010, published 2011)

Legend:
Assay in all cases: Tyrosine kinase activity inhibition rate in cell membrane fraction (Poly-Glu4-Tyr substrate)
Format in all cases: biochemical
[1] = tested on: tyrosine kinase in cell membrane fraction of HCC1569; settings: 25 μM kinase inhibitor, 25 μM ATP
Method: (§1) Breast cancer cell lines shown in Table 3 were cultured in a 150 mm dish so as to be about 80% confluent, the cells were recovered using PBS and a scraper, and a cell pellet was obtained by centrifugal operation (900×g, for 5 minutes, at 4° C.). The pellet was frozen with liquid nitrogen and stored at −80° C. until preparation of the measurement sample.
(§2) 500 μl of NP40 (−) solubilized buffer (20 mM HEPES (pH 7.4)), (w/v) % glycerol, 0.2% protease inhibitor cocktail (#P8340: Sigma-Aldrich (product composition: 104 mM AEBSF, 80 μM aprotinin, 4 mM bestatin, 1.4 mM E-64, 2 mM leupeptin, 1.5 mM Pepstatin A), 50 mM NaF and 200 μM Na3VO4) was added to the cell pellet, followed by stirring for 2 seconds three times using a vortex mixer. After being allowed to stand for 10 minutes, the soluble fraction was removed by centrifugal operation (at 20000×g, for 30 minutes, at 4° C.). The obtained pellet was resuspended in 500 μl of NP40 (−) solubilized buffer, the soluble fraction was again removed by centrifugal operation (at 20000×g, for 20 minutes, at 4° C.), and the pellet was washed. The pellet was resuspended by adding 500 μl of NP40 (+) solubilized buffer (a buffer prepared by adding NP-40 to the NP40 (−) solubilized buffer at a final concentration of 1%) to the pellet, pipetting fifty times, and vortexing for 2 seconds three times. After being allowed to stand for 10 minutes, a cell membrane fraction containing a membrane protein was obtained by centrifugal operation (at 20000×g, for 40 minutes, at 4° C.). The protein concentration of the fraction was measured by DC protein assay (#500-0116 JA: Bio-Rad) and the fraction was used as a sample for kinase activity measurement. The sample was frozen with liquid nitrogen and stored at −80° C. until used for the following kinase activity measurement.
(§3) NeutrAvidin Coated Plates (HBC) (96 white plate; #15509: Pierce) were washed three times with 300 μl of TBS-T (20 mM Tris-HCl (pH 7.4)), 150 mM NaCl, 0.1% Tween), and then 100 μl of Poly-Glu4-Tyr biotin conjugate (#12440: Upstate) which had been diluted to 1 μg/ml with TBS (20 mM Tris-HCl (pH 7.4), 150 mM NaCl) was added to the wells. After shaking at 37° C. and 400 rpm for 90 minutes, the wells were washed with 300 μl of TBS-T three times and a measuring plate was obtained.
(§4) The measurement sample was diluted with a kinase buffer (20 mM HEPES (pH 7.4), 25 mM MgCl2, 1.25 mM MnCl2, 250 μM Na3VO4, 12.5 (w/v) % glycerol) so as to adjust the protein concentration to 6.25 μg/ml. The diluted measurement sample was transferred to wells of a 96 well V bottom plate. A DMSO solution (inhibitor concentration: 5 mM) containing one type of tyrosine kinase inhibitors (Inhibitors 1 to 10 shown in Table 6) was added to the wells at a ratio of 1:160 based on the diluted measurement sample solution, followed by mixing thereof. As the control, DMSO was added to the diluted measurement sample at the same ratio as the solution of the inhibitor. The used tyrosine kinase inhibitors are represented as Inhibitors 1 to 10 in Table 6.
(§5) After addition of the inhibitors, a mixed solution of the measurement sample and the inhibitor was allowed to stand at room temperature for 10 minutes. 40 μl of the mixed solution was transferred to wells of the measuring plate and 10 μl of an ATP solution (20 mM HEPES (pH 7.4), […]) as the phosphate group donor was added to the wells.
(§6) The composition of the solution in the wells is as follows: protein concentration: 5 μg/ml, 20 mM HEPES (pH 7.4), 20 mM MgCl2, 1 mM MnCl2, 200 μM Na3VO4, 10 (w/v) % glycerol, 25 μM ATP, 25 μM kinase inhibitor.
(§7) After shaking the measuring plate at 37° C. and 400 rpm for 60 minutes, the solution was removed from the measuring plate, and the wells were washed with 300 μl of TBS-T three times. 100 μl of Starting Block T20 (TBS) (#37543: Pierce) as a blocking solution was added to the wells, followed by blocking at 37° C. and 400 rpm for 10 minutes. The blocking solution was removed from the measuring plate. […]

[2] = tested on: tyrosine kinase in cell membrane fraction of MDA-MB-435S; settings: 25 μM kinase inhibitor, 25 μM ATP
Method: as §1, §2, §3, §4, §5, §6, §7

[3] = tested on: tyrosine kinase in cell membrane fraction of CAMA-1; settings: 25 μM kinase inhibitor, 25 μM ATP
Method: as §1, §2, §3, §4, §5, §6, §7

[4] = tested on: tyrosine kinase in cell membrane fraction of HS578T; settings: 25 μM kinase inhibitor, 25 μM ATP
Method: as §1, §2, §3, §4, §5, §6, §7

[5] = tested on: tyrosine kinase in cell membrane fraction of UACC812; settings: UACC812; 25 μM kinase inhibitor, 25 μM ATP
Method: as §1, §2, §3, §4, §5, §6, §7

[6] = tested on: tyrosine kinase in cell membrane fraction of MDA-MB-453; settings: 25 μM kinase inhibitor, 25 μM ATP
Method: as §1, §2, §3, §4, §5, §6, §7

[7] = tested on: tyrosine kinase in cell membrane fraction of HCC1428; settings: 25 μM kinase inhibitor, 25 μM ATP
Method: as §1, §2, §3, §4, §5, §6, §7

[8] = tested on: tyrosine kinase in cell membrane fraction of UACC893; settings: UACC893; 25 μM kinase inhibitor, 25 μM ATP
Method: as §1, §2, §3, §4, §5, §6, §7

[9] = tested on: tyrosine kinase in cell membrane fraction of HCC1419; settings: 25 μM kinase inhibitor, 25 μM ATP
Method: as §1, §2, §3, §4, §5, §6, §7

[10] = tested on: tyrosine kinase in cell membrane fraction of MDA-MB-468; settings: 25 μM kinase inhibitor, 25 μM ATP
Method: as §1, §2, §3, §4, §5, §6, §7

[11] = tested on: tyrosine kinase in cell membrane fraction of HCC1954; settings: 25 μM kinase inhibitor, 25 μM ATP
Method: as §1, §2, §3, §4, §5, §6, §7

Question: Which Inhibition rate [1] does the source give for `COc1cc2ncnc(Nc3cccc(Cl)c3)c2cc1OC` [Inhibitor 1] here?
Answer: 44.7%

Question: And the Inhibition rate [2]?
Answer: 33.4%

Question: What about the Inhibition rate [3] of the same compound?
Answer: 14.3%

Question: What about the Inhibition rate [4] of the same compound?
Answer: 53.8%

Question: What about the Inhibition rate [5] of the same compound?
Answer: 49.3%

Question: What about the Inhibition rate [6] of the same compound?
Answer: 39.8%

Question: And the Inhibition rate [7]?
Answer: 19.3%

Question: What about the Inhibition rate [8] of the same compound?
Answer: 21.2%

Question: And the Inhibition rate [9]?
Answer: 34.9%

Question: And the Inhibition rate [10]?
Answer: 77.4%

Question: What about the Inhibition rate [11] of the same compound?
Answer: 39.4%

Question: What does the source list for `CN1CCC(Nc2ncc3ncnc(Nc4ccc(F)c(Cl)c4)c3n2)CC1` [Inhibitor 2]?
Answer: Inhibition rate [1]: 25.0%; Inhibition rate [2]: 3.8%; Inhibition rate [3]: −3.4%; Inhibition rate [4]: 20.8%; Inhibition rate [5]: 30.3%; Inhibition rate [6]: 19.9%; Inhibition rate [7]: 6.8%; Inhibition rate [8]: 4.1%; Inhibition rate [9]: 6.2%; Inhibition rate [10]: 52.1%; Inhibition rate [11]: 19.7%

Question: `COc1cc2ncnc(Nc3ccc(OCc4ccccc4)cc3)c2cc1OC` [Inhibitor 3, 4-(4-benzyloxyanilino)-6,7-dimethoxyquinazoline] was tested. Which Inhibition rate [1] did it give?
Answer: 42.3%

Question: What about the Inhibition rate [2] of the same compound?
Answer: 37.2%

Question: And the Inhibition rate [3]?
Answer: 16.7%

Question: And the Inhibition rate [4]?
Answer: 40.0%

Question: And the Inhibition rate [5]?
Answer: 66.6%

Question: What about the Inhibition rate [6] of the same compound?
Answer: 36.9%

Question: What about the Inhibition rate [7] of the same compound?
Answer: 29.8%

Question: What about the Inhibition rate [8] of the same compound?
Answer: 22.9%

Question: And the Inhibition rate [9]?
Answer: 43.3%

Question: What about the Inhibition rate [10] of the same compound?
Answer: 76.9%

Question: What about the Inhibition rate [11] of the same compound?
Answer: 31.8%

Question: What does the source list for `CN(C)c1cc2c(Nc3ccc4c(cnn4Cc4ccccc4)c3)ncnc2cn1` [Inhibitor 4, N4-(1-benzyl-1H-indazol-5-yl)-N6,N6-dimethyl-pyrido-[3,4-d]-pyrimidine-4,6-diamine]?
Answer: Inhibition rate [1]: 37.9%; Inhibition rate [2]: 22.6%; Inhibition rate [3]: 7.3%; Inhibition rate [4]: 32.1%; Inhibition rate [5]: 59.4%; Inhibition rate [6]: 27.9%; Inhibition rate [7]: 7.9%; Inhibition rate [8]: −3.1%; Inhibition rate [9]: 23.8%; Inhibition rate [10]: 71.6%; Inhibition rate [11]: 23.2%

Question: With `CS(=O)(=O)CCNCc1nc(-c2ccc3ncnc(Nc4ccc(OCc5cccc(F)c5)c(Cl)c4)c3c2)cs1.Cl.Cl` [Inhibitor 5, N-[3-chloro-4-[(3-fluorophenyl)methoxy]phenyl]-6-[2-[[[2-(methylsulfonyl)ethyl]amino]methyl]-4-thiazolyl]-4-quinazolineamine dihydrochloride] as the compound, how does the Inhibition rate [1] read?
Answer: 60.7%

Question: What about the Inhibition rate [2] of the same compound?
Answer: 57.8%

Question: And the Inhibition rate [3]?
Answer: 48.6%

Question: And the Inhibition rate [4]?
Answer: 64.2%

Question: And the Inhibition rate [5]?
Answer: 80.4%

Question: What about the Inhibition rate [6] of the same compound?
Answer: 70.4%

Question: And the Inhibition rate [7]?
Answer: 56.1%

Question: And the Inhibition rate [8]?
Answer: 48.4%

Question: What about the Inhibition rate [9] of the same compound?
Answer: 63.6%

Question: What about the Inhibition rate [10] of the same compound?
Answer: 75.4%

Question: And the Inhibition rate [11]?
Answer: 59.5%

Question: What does the source list for `COc1cc2c(cc1OC)-c1[nH]nc(Nc3cccc(F)c3)c1C2` [Inhibitor 6]?
Answer: Inhibition rate [1]: 57.8%; Inhibition rate [2]: 40.6%; Inhibition rate [3]: 15.9%; Inhibition rate [4]: 49.7%; Inhibition rate [5]: 61.4%; Inhibition rate [6]: 28.9%; Inhibition rate [7]: 30.0%; Inhibition rate [8]: 28.0%; Inhibition rate [9]: 33.5%; Inhibition rate [10]: 1.4%; Inhibition rate [11]: 41.5%

Question: For `CCCNC(=O)Nc1ccc(Oc2ncnc3cc(OC)c(OC)cc23)cc1Cl` [Inhibitor 7], which Inhibition rate [1] is on record?
Answer: 16.6%

Question: What about the Inhibition rate [2] of the same compound?
Answer: 10.5%

Question: What about the Inhibition rate [3] of the same compound?
Answer: 3.4%

Question: And the Inhibition rate [4]?
Answer: 19.4%

Question: What about the Inhibition rate [5] of the same compound?
Answer: 28.5%

Question: And the Inhibition rate [6]?
Answer: 29.4%

Question: What about the Inhibition rate [7] of the same compound?
Answer: 12.9%

Question: And the Inhibition rate [8]?
Answer: 23.9%

Question: And the Inhibition rate [9]?
Answer: 28.4%

Question: What about the Inhibition rate [10] of the same compound?
Answer: 18.5%

Question: And the Inhibition rate [11]?
Answer: 17.6%

Question: `Cc1cc(F)c(Nc2ncnc3cc(OCc4ccccc4)ccc23)cc1O.Cl` [Inhibitor 8] was tested. Which Inhibition rate [1] did it give?
Answer: 15.5%

Question: And the Inhibition rate [2]?
Answer: 9.8%

Question: And the Inhibition rate [3]?
Answer: 8.1%

Question: What about the Inhibition rate [4] of the same compound?
Answer: 5.5%

Question: What about the Inhibition rate [5] of the same compound?
Answer: 21.6%

Question: What about the Inhibition rate [6] of the same compound?
Answer: 17.7%

Question: What about the Inhibition rate [7] of the same compound?
Answer: 2.2%

Question: What about the Inhibition rate [8] of the same compound?
Answer: 3.3%

Question: What about the Inhibition rate [9] of the same compound?
Answer: 14.7%

Question: And the Inhibition rate [10]?
Answer: 7.1%

Question: What about the Inhibition rate [11] of the same compound?
Answer: 4.1%

Question: Which results are given for `Cc1[nH]c(/C=C2\C(=O)Nc3ccc(S(=O)(=O)N(C)c4cccc(Cl)c4)cc32)c(C)c1C(=O)N1CCN(C)CC1` [Inhibitor 9]?
Answer: Inhibition rate [1]: 67.0%; Inhibition rate [2]: 80.3%; Inhibition rate [3]: 60.2%; Inhibition rate [4]: 70.6%; Inhibition rate [5]: 78.1%; Inhibition rate [6]: 64.4%; Inhibition rate [7]: 47.5%; Inhibition rate [8]: 56.9%; Inhibition rate [9]: 70.7%; Inhibition rate [10]: 65.0%; Inhibition rate [11]: 65.7%
